test system: Staphylococcus aureus; experiment: Antibacterial activity against methicillin-resistant Staphylococcus aureus clinical isolate M12 by CLSI based micro-broth dilution method; type: functional

| Structure (SMILES) | MIC |
| --- | --- |
| C=CCc1cc(-c2ccc(OCCC[N+](C)(C)CC(=O)NCCCC)c(CC=C)c2)c2oc(=S)n(Cc3ccc(Cl)cc3)c2c1.[Br-] | 4 µg/mL |
| C=CCc1cc(-c2ccc(OCCC[N+](C)(C)CC(=O)NCCCC)c(CC=C)c2)c2oc(=S)n(Cc3ccccc3Br)c2c1.[Br-] | 16 µg/mL |
| C=CCc1cc(-c2ccc(OCCC[N+](C)(C)CC(=O)NCCCC)c(CC=C)c2)c2oc(=S)n(Cc3ccc(OC)cc3)c2c1.[Br-] | 2 µg/mL |

test system: Staphylococcus aureus; experiment: Antibacterial activity against methicillin-resistant Staphylococcus aureus clinical isolate M11 by CLSI based micro-broth dilution method; type: functional

| Structure (SMILES) | MIC |
| --- | --- |
| C=CCc1cc(-c2ccc(OCCC[N+](C)(C)CC(=O)NCCCC)c(CC=C)c2)c2oc(=S)n(Cc3ccc(Cl)cc3)c2c1.[Br-] | 4 µg/mL |
| C=CCc1cc(-c2ccc(OCCC[N+](C)(C)CC(=O)NCCCC)c(CC=C)c2)c2oc(=S)n(Cc3ccccc3Br)c2c1.[Br-] | 64 µg/mL |
| C=CCc1cc(-c2ccc(OCCC[N+](C)(C)CC(=O)NCCCC)c(CC=C)c2)c2oc(=S)n(Cc3ccc(OC)cc3)c2c1.[Br-] | 2 µg/mL |

test system: Staphylococcus aureus; experiment: Antibacterial activity against Staphylococcus aureus ATCC 29213 by CLSI based micro-broth dilution method; type: functional

| Structure (SMILES) | MIC |
| --- | --- |
| C=CCc1cc(-c2ccc(OCCC[N+](C)(C)CC(=O)NCCCC)c(CC=C)c2)c2oc(=S)n(Cc3ccc(Cl)cc3)c2c1.[Br-] | 16 µg/mL |
| C=CCc1cc(-c2ccc(OCCC[N+](C)(C)CC(=O)NCCCC)c(CC=C)c2)c2oc(=S)n(Cc3ccccc3Br)c2c1.[Br-] | 128 µg/mL |
| C=CCc1cc(-c2ccc(OCCC[N+](C)(C)CC(=O)NCCCC)c(CC=C)c2)c2oc(=S)n(Cc3ccc(OC)cc3)c2c1.[Br-] | 32 µg/mL |

test system: not listed separately; experiment: Hemolytic activity in sheep erythrocytes incubated for 1 hr by absorbance based assay; type: toxicity, cell-based, Ovis aries, Erythrocyte

| Structure (SMILES) | HC50 at 1 h |
| --- | --- |
| C=CCc1cc(-c2ccc(OCCC[N+](C)(C)CC(=O)NCCCC)c(CC=C)c2)c2oc(=S)n(Cc3ccc(Cl)cc3)c2c1.[Br-] | 519 µg/mL |
| C=CCc1cc(-c2ccc(OCCC[N+](C)(C)CC(=O)NCCCC)c(CC=C)c2)c2oc(=S)n(Cc3ccccc3Br)c2c1.[Br-] | > 160 µg/mL |
| C=CCc1cc(-c2ccc(OCCC[N+](C)(C)CC(=O)NCCCC)c(CC=C)c2)c2oc(=S)n(Cc3ccc(OC)cc3)c2c1.[Br-] | 57.4 µg/mL |

test system: Staphylococcus aureus; experiment: Antibacterial activity against methicillin-resistant Staphylococcus aureus clinical isolate M17 by CLSI based micro-broth dilution method; type: functional

| Structure (SMILES) | MIC |
| --- | --- |
| C=CCc1cc(-c2ccc(OCCC[N+](C)(C)CC(=O)NCCCC)c(CC=C)c2)c2oc(=S)n(Cc3ccc(Cl)cc3)c2c1.[Br-] | 8 µg/mL |
| C=CCc1cc(-c2ccc(OCCC[N+](C)(C)CC(=O)NCCCC)c(CC=C)c2)c2oc(=S)n(Cc3ccccc3Br)c2c1.[Br-] | 64 µg/mL |
| C=CCc1cc(-c2ccc(OCCC[N+](C)(C)CC(=O)NCCCC)c(CC=C)c2)c2oc(=S)n(Cc3ccc(OC)cc3)c2c1.[Br-] | 16 µg/mL |

test system: not listed separately; experiment: Selectivity index, ratio of HC50 for hemolytic activity in sheep erythrocytes to MIC for antibacterial activity against Staphylococcus aureus ATCC 29213; type: toxicity, cell-based, RBC

| Structure (SMILES) | selectivity ratio |
| --- | --- |
| C=CCc1cc(-c2ccc(OCCC[N+](C)(C)CC(=O)NCCCC)c(CC=C)c2)c2oc(=S)n(Cc3ccc(Cl)cc3)c2c1.[Br-] | 32.5 |
| C=CCc1cc(-c2ccc(OCCC[N+](C)(C)CC(=O)NCCCC)c(CC=C)c2)c2oc(=S)n(Cc3ccccc3Br)c2c1.[Br-] | > 1.3 |
| C=CCc1cc(-c2ccc(OCCC[N+](C)(C)CC(=O)NCCCC)c(CC=C)c2)c2oc(=S)n(Cc3ccc(OC)cc3)c2c1.[Br-] | 1.8 |

test system: Staphylococcus aureus; experiment: Antibacterial activity against methicillin-resistant Staphylococcus aureus clinical isolate M22 by CLSI based micro-broth dilution method; type: functional

| Structure (SMILES) | MIC |
| --- | --- |
| C=CCc1cc(-c2ccc(OCCC[N+](C)(C)CC(=O)NCCCC)c(CC=C)c2)c2oc(=S)n(Cc3ccc(Cl)cc3)c2c1.[Br-] | 8 µg/mL |
| C=CCc1cc(-c2ccc(OCCC[N+](C)(C)CC(=O)NCCCC)c(CC=C)c2)c2oc(=S)n(Cc3ccccc3Br)c2c1.[Br-] | 32 µg/mL |
| C=CCc1cc(-c2ccc(OCCC[N+](C)(C)CC(=O)NCCCC)c(CC=C)c2)c2oc(=S)n(Cc3ccc(OC)cc3)c2c1.[Br-] | 8 µg/mL |

test system: Staphylococcus aureus; experiment: Antibacterial activity against methicillin-resistant Staphylococcus aureus clinical isolate M23 by CLSI based micro-broth dilution method; type: functional

| Structure (SMILES) | MIC |
| --- | --- |
| C=CCc1cc(-c2ccc(OCCC[N+](C)(C)CC(=O)NCCCC)c(CC=C)c2)c2oc(=S)n(Cc3ccc(Cl)cc3)c2c1.[Br-] | 16 µg/mL |
| C=CCc1cc(-c2ccc(OCCC[N+](C)(C)CC(=O)NCCCC)c(CC=C)c2)c2oc(=S)n(Cc3ccccc3Br)c2c1.[Br-] | 64 µg/mL |
| C=CCc1cc(-c2ccc(OCCC[N+](C)(C)CC(=O)NCCCC)c(CC=C)c2)c2oc(=S)n(Cc3ccc(OC)cc3)c2c1.[Br-] | 8 µg/mL |

test system: Staphylococcus aureus; experiment: Antibacterial activity against methicillin-resistant Staphylococcus aureus clinical isolate M20 by CLSI based micro-broth dilution method; type: functional

| Structure (SMILES) | MIC |
| --- | --- |
| C=CCc1cc(-c2ccc(OCCC[N+](C)(C)CC(=O)NCCCC)c(CC=C)c2)c2oc(=S)n(Cc3ccc(Cl)cc3)c2c1.[Br-] | 4 µg/mL |
| C=CCc1cc(-c2ccc(OCCC[N+](C)(C)CC(=O)NCCCC)c(CC=C)c2)c2oc(=S)n(Cc3ccccc3Br)c2c1.[Br-] | 64 µg/mL |
| C=CCc1cc(-c2ccc(OCCC[N+](C)(C)CC(=O)NCCCC)c(CC=C)c2)c2oc(=S)n(Cc3ccc(OC)cc3)c2c1.[Br-] | 2 µg/mL |

test system: Staphylococcus aureus; experiment: Antibacterial activity against methicillin-resistant Staphylococcus aureus N315 by CLSI based micro-broth dilution method; type: functional

| Structure (SMILES) | MIC |
| --- | --- |
| C=CCc1cc(-c2ccc(OCCC[N+](C)(C)CC(=O)NCCCC)c(CC=C)c2)c2oc(=S)n(Cc3ccc(Cl)cc3)c2c1.[Br-] | 32 µg/mL |
| C=CCc1cc(-c2ccc(OCCC[N+](C)(C)CC(=O)NCCCC)c(CC=C)c2)c2oc(=S)n(Cc3ccccc3Br)c2c1.[Br-] | 128 µg/mL |
| C=CCc1cc(-c2ccc(OCCC[N+](C)(C)CC(=O)NCCCC)c(CC=C)c2)c2oc(=S)n(Cc3ccc(OC)cc3)c2c1.[Br-] | 32 µg/mL |

test system: Staphylococcus aureus; experiment: Antibacterial activity against methicillin-resistant Staphylococcus aureus clinical isolate M16 by CLSI based micro-broth dilution method; type: functional

| Structure (SMILES) | MIC |
| --- | --- |
| C=CCc1cc(-c2ccc(OCCC[N+](C)(C)CC(=O)NCCCC)c(CC=C)c2)c2oc(=S)n(Cc3ccc(Cl)cc3)c2c1.[Br-] | 8 µg/mL |
| C=CCc1cc(-c2ccc(OCCC[N+](C)(C)CC(=O)NCCCC)c(CC=C)c2)c2oc(=S)n(Cc3ccccc3Br)c2c1.[Br-] | 64 µg/mL |
| C=CCc1cc(-c2ccc(OCCC[N+](C)(C)CC(=O)NCCCC)c(CC=C)c2)c2oc(=S)n(Cc3ccc(OC)cc3)c2c1.[Br-] | 4 µg/mL |

test system: Staphylococcus aureus; experiment: Antibacterial activity against methicillin-resistant Staphylococcus aureus clinical isolate M13 by CLSI based micro-broth dilution method; type: functional

| Structure (SMILES) | MIC |
| --- | --- |
| C=CCc1cc(-c2ccc(OCCC[N+](C)(C)CC(=O)NCCCC)c(CC=C)c2)c2oc(=S)n(Cc3ccc(Cl)cc3)c2c1.[Br-] | 8 µg/mL |
| C=CCc1cc(-c2ccc(OCCC[N+](C)(C)CC(=O)NCCCC)c(CC=C)c2)c2oc(=S)n(Cc3ccccc3Br)c2c1.[Br-] | 128 µg/mL |
| C=CCc1cc(-c2ccc(OCCC[N+](C)(C)CC(=O)NCCCC)c(CC=C)c2)c2oc(=S)n(Cc3ccc(OC)cc3)c2c1.[Br-] | 4 µg/mL |

test system: Staphylococcus aureus; experiment: Antibacterial activity against methicillin-resistant Staphylococcus aureus clinical isolate M14 by CLSI based micro-broth dilution method; type: functional

| Structure (SMILES) | MIC |
| --- | --- |
| C=CCc1cc(-c2ccc(OCCC[N+](C)(C)CC(=O)NCCCC)c(CC=C)c2)c2oc(=S)n(Cc3ccc(Cl)cc3)c2c1.[Br-] | 16 µg/mL |
| C=CCc1cc(-c2ccc(OCCC[N+](C)(C)CC(=O)NCCCC)c(CC=C)c2)c2oc(=S)n(Cc3ccccc3Br)c2c1.[Br-] | 128 µg/mL |
| C=CCc1cc(-c2ccc(OCCC[N+](C)(C)CC(=O)NCCCC)c(CC=C)c2)c2oc(=S)n(Cc3ccc(OC)cc3)c2c1.[Br-] | 2 µg/mL |

test system: Escherichia coli; experiment: Antibacterial activity against Escherichia coli ATCC 25922 by CLSI based micro-broth dilution method; type: functional

| Structure (SMILES) | MIC |
| --- | --- |
| C=CCc1cc(-c2ccc(OCCC[N+](C)(C)CC(=O)NCCCC)c(CC=C)c2)c2oc(=S)n(Cc3ccc(Cl)cc3)c2c1.[Br-] | > 128 µg/mL |
| C=CCc1cc(-c2ccc(OCCC[N+](C)(C)CC(=O)NCCCC)c(CC=C)c2)c2oc(=S)n(Cc3ccccc3Br)c2c1.[Br-] | > 128 µg/mL |
| C=CCc1cc(-c2ccc(OCCC[N+](C)(C)CC(=O)NCCCC)c(CC=C)c2)c2oc(=S)n(Cc3ccc(OC)cc3)c2c1.[Br-] | > 128 µg/mL |

test system: Staphylococcus aureus; experiment: Antibacterial activity against methicillin-resistant Staphylococcus aureus clinical isolate M21 by CLSI based micro-broth dilution method; type: functional

| Structure (SMILES) | MIC |
| --- | --- |
| C=CCc1cc(-c2ccc(OCCC[N+](C)(C)CC(=O)NCCCC)c(CC=C)c2)c2oc(=S)n(Cc3ccc(Cl)cc3)c2c1.[Br-] | 4 µg/mL |
| C=CCc1cc(-c2ccc(OCCC[N+](C)(C)CC(=O)NCCCC)c(CC=C)c2)c2oc(=S)n(Cc3ccccc3Br)c2c1.[Br-] | 32 µg/mL |
| C=CCc1cc(-c2ccc(OCCC[N+](C)(C)CC(=O)NCCCC)c(CC=C)c2)c2oc(=S)n(Cc3ccc(OC)cc3)c2c1.[Br-] | 2 µg/mL |

Source: ChEMBL document CHEMBL6127052, “Discovery of membrane-targeting amphiphilic honokiol derivatives containing an oxazolethione moiety to combat methicillin-resistant Staphylococcus aureus (MRSA) infections” (Eur J Med Chem, 2024)
